Several values for one entry are separate records, joined by “and”; a condition that tells them apart may be missing. Identical values can stand only once.
System: patients with relapsed/refractory T Cell Lymphoma
Experiment: Safety assessment (adverse events per CTCAE v4.03, DLT/MTD) in phase I/Ib study
Format: in vivo, human
Method: Protocol defined hematological or non-hematological toxicity was considered dose-limiting if it occurred during the first cycle (within the first 28 d) and was considered related to Tenalisib. Hematological DLTs was defined as Grade 4 anemia; Grade 4 neutropenia for >7 days, or Grade ≥3 febrile neutropenia with fever >38.5 °C [101 °F]; Grade 4 thrombocytopenia for >7 days, or Grade ≥3 thrombocytopenia associated with Grade >2 bleeding.
Safety assessment included adverse event (AE) and serious adverse events (SAE) as per Common Terminology Criteria for Adverse Events (CTCAE), Version 4.03. During dose escalation, safety assessments were performed at weekly intervals during Cycle 1 and Cycle 2 and at two weekly intervals during Cycle 3 and 4. After completion of Cycle 4, safety assessments were performed on Day 1 of each subsequent cycle. In dose expansion phase, all safety assessments were performed on Day 1 of each cycle.

[1] = Relationship-all, Dose Expansion (N = 39)
[2] = Relationship-all, Total (N = 58)

## CC[C@H](Nc1ncnc2[nH]cnc12)c1oc2ccccc2c(=O)c1-c1cccc(F)c1 [Tenalisib]
[1]
  Pyrexia: patients with event: 9 (23.1%) n (%)
  Rash: count of events: 6
  Rash: patients with event: 3 (7.7%) n (%)
  Tachycardia: count of events: 3
  Tachycardia: patients with event: 3 (7.7%) n (%)
  Vomiting: count of events: 6
  Vomiting: patients with event: 5 (12.8%) n (%)
[2]
  Abdominal pain: count of events: 9
  Abdominal pain: patients with event: 8 (13.8%) n (%)
  Alanine aminotransferase increased: count of events: 33
  Alanine aminotransferase increased: patients with event: 20 (34.5%) n (%)
  Anemia: count of events: 16
  Anemia: patients with event: 9 (15.5%) n (%)
  Aspartate aminotransferase increased: count of events: 37
  Aspartate aminotransferase increased: patients with event: 21 (36.2%) n (%)
  Blood creatinine increased: count of events: 7
  Blood creatinine increased: patients with event: 7 (12.1%) n (%)
  Blood thyroid stimulating hormone increased: count of events: 7
  Blood thyroid stimulating hormone increased: patients with event: 6 (10.3%) n (%)
  Constipation: count of events: 10
  Constipation: patients with event: 9 (15.5%) n (%)
  Cough: count of events: 16
  Cough: patients with event: 13 (22.4%) n (%)
  Decreased appetite: count of events: 13
  Decreased appetite: patients with event: 12 (20.7%) n (%)
  Dehydration: count of events: 18
  Dehydration: patients with event: 13 (22.4%) n (%)
  Diarrhea: count of events: 25
  Diarrhea: patients with event: 19 (32.8%) n (%)
  Dizziness: count of events: 12
  Dizziness: patients with event: 10 (17.2%) n (%)
  Dry skin: count of events: 8
  Dry skin: patients with event: 7 (12.1%) n (%)
  Dyspnea: count of events: 7
  Dyspnea: patients with event: 7 (12.1%) n (%)
  Fatigue: count of events: 27
  Fatigue: patients with event: 26 (45%) n (%) and 26 (44.8%) n (%)
  Gamma-glutamyl transferase increased: count of events: 11
  Gamma-glutamyl transferase increased: patients with event: 8 (13.8%) n (%)
  Grade 3/4 Alanine aminotransferase increased: count of events: 12
  Grade 3/4 Alanine aminotransferase increased: patients with event: 11 (19.0%) n (%)
  Grade 3/4 Anemia: count of events: 8
  Grade 3/4 Anemia: patients with event: 5 (8.6%) n (%)
  Grade 3/4 Aspartate aminotransferase increased: count of events: 12
  Grade 3/4 Aspartate aminotransferase increased: patients with event: 11 (19.0%) n (%)
  Grade 3/4 Fatigue: count of events: 4
  Grade 3/4 Fatigue: patients with event: 3 (5.2%) n (%)
  Grade 3/4 Hyponatremia: count of events: 4
  Grade 3/4 Hyponatremia: patients with event: 4 (6.9%) n (%)
  Grade 3/4 Neutropenia: count of events: 4
  Grade 3/4 Neutropenia: patients with event: 4 (6.9%) n (%)
  Grade 3/4 Thrombocytopenia: count of events: 3
  Grade 3/4 Thrombocytopenia: patients with event: 3 (5.2%) n (%)
  Headache: count of events: 13
  Headache: patients with event: 10 (17.2%) n (%)
  Hypokalemia: count of events: 10
  Hypokalemia: patients with event: 7 (12.1%) n (%)
  Hyponatremia: count of events: 9
  Hyponatremia: patients with event: 8 (13.8%) n (%)
  Insomnia: count of events: 7
  Insomnia: patients with event: 6 (10.3%) n (%)
  Muscle spasms: count of events: 10
  Muscle spasms: patients with event: 9 (15.5%) n (%)
  Nausea: count of events: 16
  Nausea: patients with event: 15 (25.9%) n (%)
  Pruritus: count of events: 10
  Pruritus: patients with event: 9 (15.5%) n (%)
  Psychiatric disorders: count of events: 18
  Psychiatric disorders: patients with event: 11 (19.0%) n (%)
  Pyrexia: count of events: 21
  Pyrexia: patients with event: 13 (22.4%) n (%)
  Rash: count of events: 10
  Rash: patients with event: 6 (10.3%) n (%)
  Tachycardia: count of events: 9
  Tachycardia: patients with event: 8 (13.8%) n (%)
  Vomiting: count of events: 11
  Vomiting: patients with event: 9 (15.5%) n (%)
All patients
  Fatigue, most frequently reported TEAE: 45%
  Transaminase elevations, most frequently reported related TEAE: 33%
Also in patients treated for more than six months
  Late onset toxicities like colitis, pneumonitis, and opportunistic infections: not seen
human, in vivo
  Alanine aminotransferase increased: count of events: 13
  Alanine aminotransferase increased: patients with event: 6 (31.6%) n (%)
  Anemia, Grade 3 TEAE: 8.6%
  Anemia: count of events: 1
  Anemia: patients with event: 1 (5.3%) n (%)
  Aspartate aminotransferase increased: count of events: 15
  Aspartate aminotransferase increased: patients with event: 6 (31.6%) n (%)
  Blood alkaline phosphatase increased: count of events: 1
  Blood alkaline phosphatase increased: patients with event: 1 (5.3%) n (%)
  Blood creatinine increased: patients with event: 1 (5.3%) n (%)
  Blood thyroid stimulating hormone increased: count of events: 2
  Blood thyroid stimulating hormone increased: patients with event: 2 (10.5%) n (%)
  Constipation: count of events: 5
  Constipation: patients with event: 4 (21.1%) n (%)
  Cough: count of events: 7
  Cough: patients with event: 6 (31.6%) n (%)
  Decreased appetite: count of events: 5
  Decreased appetite: patients with event: 5 (26.3%) n (%)
  Discontinuation due to adverse events: 9%
  Dry skin: count of events: 2
  Dry skin: patients with event: 2 (10.5%) n (%)
  Dyspepsia: count of events: 1
  Dyspepsia: patients with event: 1 (5.3%) n (%)
  Dyspnea: count of events: 5
  Dyspnea: patients with event: 5 (26.3%) n (%)
  Erythema: count of events: 1
  Erythema: patients with event: 1 (5.3%) n (%)
  Gamma-glutamyl transferase increased: count of events: 2
  Gamma-glutamyl transferase increased: patients with event: 2 (10.5%) n (%)
  Gamma-glutamyltransferase increased: count of events: 2
  Gamma-glutamyltransferase increased: patients with event: 2 (10.5%) n (%)
  Grade 3/4 Alanine aminotransferase increased: count of events: 7
  Grade 3/4 Alanine aminotransferase increased: patients with event: 6 (15.4%) n (%)
  Grade 3/4 Anemia: count of events: 6
  Grade 3/4 Anemia: patients with event: 3 (7.7%) n (%)
  Grade 3/4 Aspartate aminotransferase increased: count of events: 8
  Grade 3/4 Aspartate aminotransferase increased: patients with event: 7 (17.9%) n (%)
  Grade 3/4 Fatigue: count of events: 3
  Grade 3/4 Fatigue: patients with event: 2 (5.1%) n (%)
  Grade 3/4 Hyponatremia: count of events: 2
  Grade 3/4 Hyponatremia: patients with event: 2 (5.1%) n (%)
  Grade 3/4 Neutropenia: count of events: 2
  Grade 3/4 Neutropenia: patients with event: 2 (5.1%) n (%)
  Grade 3/4 Thrombocytopenia: count of events: 2
  Grade 3/4 Thrombocytopenia: patients with event: 2 (5.1%) n (%)
  Headache: count of events: 4
  Headache: patients with event: 3 (15.8%) n (%)
  Hypokalemia: count of events: 5
  Hypokalemia: patients with event: 4 (21.1%) n (%)
  Hyponatremia, Grade 3 TEAE: 6.9%
  Hyponatremia: count of events: 4
  Hyponatremia: patients with event: 4 (21.1%) n (%)
  Insomnia: count of events: 3
  Insomnia: patients with event: 3 (15.8%) n (%)
  Neutropenia, Grade 3 TEAE: 6.9%
  Neutropenia: count of events: 2
  Number of related ≥Grade 3 AEs: 12
  Patients discontinued because of TEAEs: 14%
  Patients with SAEs: 22 (38%) n (%)
  Patients with at least one TEAE: 57 (98%) n (%)
  Patients with related AEs: 18 (64%) n (%)
  Patients with related Grade 4 TEAEs: 5.2%
  Patients with related ≥Grade 3 AEs: 9 (32%) n (%)
  Pruritus: count of events: 5
  Pruritus: patients with event: 4 (21.1%) n (%)
  Psychiatric disorders: count of events: 6
  Psychiatric disorders: patients with event: 4 (21.1%) n (%)
  Pyrexia: count of events: 4
  Pyrexia: patients with event: 4 (21.1%) n (%)
  Rash: count of events: 4
  Rash: patients with event: 3 (15.8%) n (%)
  SAEs gastrointestinal disorders, patients: 9%
  SAEs related to infections, patients: 16%
  Tachycardia: count of events: 6
  Tachycardia: patients with event: 5 (26.3%) n (%)
  Transaminase elevation, related Grade ≥3 TEAE: 21%
In vivo
  Deaths related to drug: none of them were related to Tenalisib
  Dose-limiting toxicities (DLT): no DLTs
  Fatal outcome of related TEAEs: None of the related TEAEs led to a fatal outcome
  Grade 4 related TEAEs: two events of ALT increase and one event of sepsis
  Number of SAEs assessed to be related: six
  Number of SAEs reported: Thirty-seven
Seven deaths
  Deaths reported in the study: 12%

Reference: PMC7463651, “Phase I/Ib Study of Tenalisib (RP6530), a Dual PI3K δ/γ Inhibitor in Patients with Relapsed/Refractory T-Cell Lymphoma” (Cancers, 2020)
